In patent publication US6313161A, “2,19-methyleneoxy and 2,19-methylenethio bridged steroids as aromatase, 19-hydroxylase inhibitors and methods of their use in the treatment of estrogen mediated disorders” (Merrell Pharmaceuticals Inc., priority 1999, dated 2001):

How the values were obtained:
aromatase = target: T1, aromatase (Homo sapiens, UniProt P11511); experiment: Time-dependent aromatase inhibition assay (Kitz-Wilson kinetics); settings: 25° C., Kitz-Wilson plots; for KI (inactivation): read-out: apparent Ki of inactivation, inhibitor concentration for half-maximal rate of enzyme inactivation
T1 sequence (P11511 1-503): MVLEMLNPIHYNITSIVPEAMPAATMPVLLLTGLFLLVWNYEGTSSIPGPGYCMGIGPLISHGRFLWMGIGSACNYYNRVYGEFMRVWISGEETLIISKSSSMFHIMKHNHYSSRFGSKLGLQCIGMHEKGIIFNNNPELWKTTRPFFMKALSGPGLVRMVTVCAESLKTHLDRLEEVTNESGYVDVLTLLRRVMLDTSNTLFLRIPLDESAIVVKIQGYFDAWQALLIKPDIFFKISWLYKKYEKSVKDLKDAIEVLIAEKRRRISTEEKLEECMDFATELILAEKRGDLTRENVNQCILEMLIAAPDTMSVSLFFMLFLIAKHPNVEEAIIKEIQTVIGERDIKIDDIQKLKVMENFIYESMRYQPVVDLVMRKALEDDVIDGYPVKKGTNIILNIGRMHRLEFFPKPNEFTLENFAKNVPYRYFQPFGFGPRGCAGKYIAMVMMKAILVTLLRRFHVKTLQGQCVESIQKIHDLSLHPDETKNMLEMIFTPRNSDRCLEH
Method: In this assay, the inhibitor is preincubated with enzyme prior to assaying for activity in the presence of high substrate levels. A time-related decrease in enzyme activity can be indicative of irreversible binding of the inhibitor with the enzyme.
In the time-dependent assay, an amount of the enzyme inhibitor in 100 μl of the assay buffer described above which will provide assay concentrations which are usually between 1 nM and 10 μM are added to 35 ml centrifuge tubes containing 600 μl of the NADPH generating system. The preincubation is started by the addition of 700 μl of aromatase preparation, usually 500-800 μg of microsomal protein per ml of assay buffer. These preparations are mixed using a vortex mixer and incubated for 0, 10, 20, or 40 minutes at 25° C. […] Following vortexing, the enzyme incubation is continued for 10 minutes before being terminated by the addition of chloroform. The amount of radioactivity in the aqueous fraction is determined by scintillation procedures. The enzymatic activity for each concentration of inhibitor at each time period of preincubation is calculated as a percent of the "0" minute vehicle control arbitrarily set at 100%. Therefore, the present enzyme inhibition is expressed as a percentage: (100 percent minus percent enzyme activity with inhibitor present).
Enzyme kinetic analysis utilized Kitz-Wilson plots for time-dependent assays. These analyses provide estimates of apparent Ki of inactivation which represents the inhibitor concentration required to produce half-maximal rate of enzyme inactivation. The pseudo first-order rate constant for enzyme inactivation (kcat) and the half-time of inactivation (.tau.50) of infinite inhibitor concentrations were determined.

intratumor aromatase = experiment: Inhibition of intratumor aromatase activity (estrogen formed); type: in vivo
Excerpt: According to the method of Johnston, J. O. et al., J. Steroid Biochem., 33:521, 1989, which is herein incorporated by reference, the compounds of the present invention were further evaluated for their effect upon intratumor aromatase activity.

[1] = system: DMBA-induced mammary tumors; experiment: DMBA induced mammary tumor growth; type: in vivo, rat; settings: 15 mg/kg/day sc osmotic pump, 42 days
Method: The compounds of the present invention were also tested for the inhibition of tumor growth. Tumor growth inhibition was tested by the treatment of 50-day old female rats with the carcinogen, 7,12-dimethylbenz[a]anthracene[DMBA] and subsequently evaluated for tumor growth and/or remission (Huggins, C. et al., Nature 189:204, 1961; Russo, J. et al., Lab. Investigation 62: 244, 1990). Rats with DMBA-induced mammary tumors (≈[…]) were assigned to the following treatment groups: (1) Non-treated controls, (2) animals with subcutaneous implanted osmotic pump containing vehicle (DMSO/PEG200, 1:4 v/v), and (3) animals with subcutaneous implanted osmotic pump containing vehicle and 15 mg/kg/day of 2,19-(methyleneoxy) androst-4-ene-3,17-dione. Drug-treated animals also received 15 mg/kg/day via subcutaneous injections for the first two days of treatment as a priming dose. Tumor size was monitored for 42 days of drug treatment.

[2] = substrate: C[C@]12CCC(=O)C=C1CC[C@@H]1[C@@H]2CC[C@]2(C)C(=O)CC[C@@H]12; experiment: purified protein, by the assay type; settings: other: substrate of aromatase; 25.0 °C
Method: In the time-dependent assay, an amount of the enzyme inhibitor in 100 μl of the assay buffer described above which will provide assay concentrations which are usually between 1 nM and 10 μM are added to 35 ml centrifuge tubes containing 600 μl of the NADPH generating system. The preincubation is started by the addition of 700 μl of aromatase preparation, usually 500-800 μg of microsomal protein per ml of assay buffer. […] The amount of radioactivity in the aqueous fraction is determined by scintillation procedures. The enzymatic activity for each concentration of inhibitor at each time period of preincubation is calculated as a percent of the "0" minute vehicle control arbitrarily set at 100%. Therefore, the present enzyme inhibition is expressed as a percentage: (100 percent minus percent enzyme activity with inhibitor present).
Enzyme kinetic analysis utilized Kitz-Wilson plots for time-dependent assays. […] The pseudo first-order rate constant for enzyme inactivation (kcat) and the half-time of inactivation (.tau.50) of infinite inhibitor concentrations were determined.

C[C@]12CC[C@H]3[C@@H](CCC4=CC(=O)[C@H]5CSC[C@]43C5)[C@@H]1CCC2=O [2,19-(methylenethio)androst-4-ene-3,17-dione]
.tau.50 (half-time of inactivation at infinite inhibitor concentration) (aromatase): 1.65 min | KI (inactivation) (aromatase): 53 nM

C[C@]12CC[C@H]3[C@@H](C=CC4=CC(=O)[C@H]5COC[C@]43C5)[C@@H]1CCC2=O [2,19-(methyleneoxy)androsta-4,6-diene-3,17-dione]
.tau.50 (half-time of inactivation at infinite inhibitor concentration) (aromatase): 2.82 min | KI (inactivation) (aromatase): 21.6 nM

C[C@]12CC[C@H]3[C@@H](CCC4=CC(=O)[C@H]5COC[C@]43C5)[C@@H]1CCC2=O [2,19-(methyleneoxy)androst-4-ene-3,17-dione]
.tau.50 (half-time of inactivation at infinite inhibitor concentration) (aromatase): 2.86 min | KI (inactivation) (aromatase): 17.6 nM | % Inhibition of intratumor aromatase activity (intratumor aromatase; 3 mg/kg intraveneous, 2 hours post treatment): 70 ± 5% | Estrogen formed, absolute level (intratumor aromatase; 3 mg/kg intraveneous, 2 hours post treatment, vehicle control 294 ± 5): 88 ± 15 picomoles/gram of tumor/hour | % Inhibition of intratumor aromatase activity (intratumor aromatase; 3 mg/kg intraveneous, 4 hours post treatment): 41 ± 4% | Estrogen formed, absolute level (intratumor aromatase; 3 mg/kg intraveneous, 4 hours post treatment, vehicle control 294 ± 5): 175 ± 12 picomoles/gram of tumor/hour | % Inhibition of intratumor aromatase activity (intratumor aromatase; 3 mg/kg intraveneous, 6 hours post treatment): 37 ± 3% | Estrogen formed, absolute level (intratumor aromatase; 3 mg/kg intraveneous, 6 hours post treatment, vehicle control 294 ± 5): 186 ± 9 picomoles/gram of tumor/hour | % Inhibition of intratumor aromatase activity (intratumor aromatase; 3 mg/kg oral, 2 hours post treatment): 72 ± 5% | Estrogen formed, absolute level (intratumor aromatase; 3 mg/kg oral, 2 hours post treatment, vehicle control 173 ± 9): 49 ± 8 picomoles/gram of tumor/hour | % Inhibition of intratumor aromatase activity (intratumor aromatase; 3 mg/kg oral, 4 hours post treatment): 64 ± 4% | Estrogen formed, absolute level (intratumor aromatase; 3 mg/kg oral, 4 hours post treatment, vehicle control 173 ± 9): 62 ± 7 picomoles/gram of tumor/hour | % Inhibition of intratumor aromatase activity (intratumor aromatase; 3 mg/kg oral, 6 hours post treatment): 63 ± 5% | Estrogen formed, absolute level (intratumor aromatase; 3 mg/kg oral, 6 hours post treatment, vehicle control 173 ± 9): 64 ± 9 picomoles/gram of tumor/hour | % Inhibition of intratumor aromatase activity (intratumor aromatase; 3 mg/kg subcutaneous, 2 hours post treatment): 44 ± 5% | Estrogen formed, absolute level (intratumor aromatase; 3 mg/kg subcutaneous, 2 hours post treatment, vehicle control 121 ± 85): 68 ± 6 picomoles/gram of tumor/hour | % Inhibition of intratumor aromatase activity (intratumor aromatase; 3 mg/kg subcutaneous, 4 hours post treatment): 45 ± 32% | Estrogen formed, absolute level (intratumor aromatase; 3 mg/kg subcutaneous, 4 hours post treatment, vehicle control 121 ± 85): 67 ± 3 picomoles/gram of tumor/hour | % Inhibition of intratumor aromatase activity (intratumor aromatase; 3 mg/kg subcutaneous, 6 hours post treatment): 35 ± 7% | Estrogen formed, absolute level (intratumor aromatase; 3 mg/kg subcutaneous, 6 hours post treatment, vehicle control 121 ± 85): 78 ± 9 picomoles/gram of tumor/hour | percent of animals with no change ([1]; 50 to 150% of original tumor volume, controls 6.7): 14.3% of animals | percent of animals with partial tumor regression ([1]; <50% of original tumor volume, controls 6.7): 42.9% of animals | percent of animals with tumor progression ([1]; >150% of original tumor volume, controls 80.0): 28.6% of animals | percent of animals with complete tumor regression ([1]; Complete (0%), controls 6.7): 14.3% of animals

B1: aromatase (Homo sapiens) (protein)
chain: T1 sequence (P11511 1-503)
Km [2]: 0.04 µM
